# Experimental data as given in patent EP0258782A2, “Use of 1-(substituted mercapto-hydroxyethyl)-triazoles in the treatment of illnesses” (BAYER AG, priority 1986, dated 1988).
# Tests used:
# Aspergillus fumigatus = assay: Antimycotic in-vitro activity, serial dilution test (MIC); format: cell-based; settings: Sabouraud's milieu d'epreuve, 28-37 °C, 96 h, inoculum 5 x 10^3 to 10^4 germs/ml, read-out: MHK-Werte in γ/ml Nährmedium, Aspergillus fumigatus
# Experimental: (§1) Die in-vitro-Prüfungen wurden im Reihenverdünnungstest mit Keiminokula von durchschnittlich 5 x 10³ bis 10⁴ Keimen/ml Substrat durchgeführt. Als Nähmedium dienten • a) für Dermatophyten und Schimmelpilze: Sabouraud's milieu d'epreuve • b) für Hefen: Fleischextrakt-Traubenzucker-Bouillon.
# (§2) Die Bebrütungstemperatur betrug 28 °C bis 37 °C, die Bebrütungsdauer lag bei 24 bis 96 Stunden bei Hefen und 96 Stunden bei Dermatophyten und Schimmelpilzen.
# Candida albicans = assay: as above; format: cell-based; settings: Fleischextrakt-Traubenzucker-Bouillon, 28-37 °C, 24-96 h, inoculum 5 x 10^3 to 10^4 germs/ml, read-out: MHK-Werte in γ/ml Nährmedium, Candida albicans
# Experimental: as §1, §2
# Microsporum canis = assay: as above; format: cell-based; settings: Sabouraud's milieu d'epreuve, 28-37 °C, 96 h, inoculum 5 x 10^3 to 10^4 germs/ml, read-out: MHK-Werte in γ/ml Nährmedium, Microsporum canis
# Experimental: as §1, §2
# Trichophyton mentagr. = assay: as above; format: cell-based; settings: Sabouraud's milieu d'epreuve, 28-37 °C, 96 h, inoculum 5 x 10^3 to 10^4 germs/ml, read-out: MHK-Werte in γ/ml Nährmedium, Trichophyton mentagr.
# Experimental: as §1, §2
# Torulopsis glabrata = assay: as above; format: cell-based; settings: Nakaseomyces glabratus; Fleischextrakt-Traubenzucker-Bouillon; 28-37 °C, 24-96 h; inoculum 5 x 10^3 to 10^4 germs/ml; read-out: MHK-Werte in γ/ml Nährmedium, Torulopsis glabrata
# Experimental: as §1, §2
# Candida-Zellen = assay: Antimycotic in-vivo activity (oral) in mouse candidosis; set-up: species or system Mäuse vom Typ SPF-CF1; settings: for Wirkung (Überlebende am 6. Tag p.i.): mice infected i.v. with Candida, 25-100 mg/kg oral, 1 h before and 7 h after infection; for Wirkung compared with (A) and (B): mouse candidosis, oral, statement in words
# Experimental: Mäuse vom Typ SPF-CF₁ wurden intravenös mit 1 - 2 x 10⁶ logarithmisch wachsenden Candida-Zellen, die in physiologischer Kochsalzlösung suspendiert werden, infiziert. Eine Stunde vor und sieben Stunden nach der Infektion werden die Tiere mit jeweils 25 - 100 mg/kg Körpergewicht der Präparate oral behandelt.
# Unbehandelte Tiere starben 3 bis 6 Tage post infektionem. Die Überlebensrate am 6.Tag post infektionem betrug bei unbehandelten Kontrolltieren etwa 5 %.
# [1] = test system: Trichophyton mentagrophytes; assay: In-vivo activity (local) in experimental guinea pig trichophytosis; set-up: species or system Meerschweinchen der Rasse Pirbright-white; settings: for Wirkung (Infektionszeichen): 0,1 % solution in Dimethylsulfoxid : Glycerin = 1 : 4, local, once daily from day 3 p.i.; for Wirkung (in words): guinea pig trichophytosis, local, 0,1 % solution, statement in words
# Description: Weiße Meerschweinchen der Rasse Pirbright-white wurden auf dem geschorenen, nicht skarifizierten Rücken mit einer Mikro- und Makrokoniden-Suspension von Trichophyton mentagrophytes infiziert.
# Die infizierten Tiere wurden beginnend mit dem 3.Tag p.i. 1 x täglich mit einer 0,1 %igen Lösung der erdingungsgemäßen Präparate (in Dimethylsulfoxid : Glycerin = 1 : 4) lokal behandelt.
# Bei unbehandelten Tieren entwickelte sich innerhalb von 12 Tagen p.i. das Typische Bild einer Dermatophytose mit Rötung, Schuppung und Haarausfall bis zum totalen Integument-Defekt an der Infektionsstelle.
Structure (SMILES),MIC (Aspergillus fumigatus) [µg/mL],MIC (Candida albicans) [µg/mL],MIC (Microsporum canis) [µg/mL],MIC (Trichophyton mentagr.) [µg/mL],MIC (Torulopsis glabrata) [µg/mL],Wirkung (Überlebende am 6. Tag p.i.) (Candida-Zellen),Wirkung compared with (A) and (B) (Candida-Zellen),Wirkung (Infektionszeichen) [1],Wirkung (in words) [1]
CCSCC(O)(Cn1cncn1)C(C)(C)Cc1ccc(F)cc1 (stereo not drawn) [I-2],2,< 1,2,< 1,4,,,,
CC(C)SCC(O)(Cn1cncn1)C(C)(C)Cc1ccc(Br)cc1 (stereo not drawn) [I-40],< 1,< 1,2,< 1,< 1,+++ (= Wirkung = 60 % Überlebende am 6.Tag.p.i.),bessere Wirkung,"++++ (gute Wirkung = geringe Rötung, vereinzelt Schuppen)",gute
CCCSCC(O)(Cn1cncn1)C(C)(C)Cc1ccc(Cl)cc1 (stereo not drawn) [I-41],< 1,< 1,< 1,< 1,4,,,,
CSCC(O)(Cn1cncn1)C(C)(C)Cc1ccc(Cl)cc1 (stereo not drawn) [I-42],< 1,< 1,< 1,< 1,8,,,,
CC(C)CSCC(O)(Cn1cncn1)C(C)(C)Cc1ccc(Cl)cc1 (stereo not drawn) [I-43],< 1,< 1,< 1,< 1,4,,,,
C=CCSCC(O)(Cn1cncn1)C(C)(C)Cc1ccc(Cl)cc1 (stereo not drawn) [I-44],< 1,< 1,< 1,< 1,4,,,,
CCSCC(O)(Cn1cncn1)C(C)(C)Cc1ccc(Cl)cc1 (stereo not drawn) [I-45],< 1,2,< 1,< 1,2,,,,
CC(C)SCC(O)(Cn1cncn1)C(C)(C)Cc1ccc(Cl)cc1 (stereo not drawn) [I-46],< 1,< 1,4,< 1,< 1,++ (= schwache Wirkung = 40 % Überlebende am 6.Tag.p.i.),bessere Wirkung,,
CCCCSCC(O)(Cn1cncn1)C(C)(C)Cc1ccc(Cl)cc1 (stereo not drawn) [I-47],< 1,2,4,< 1,4,,,,
CCCSCC(O)(Cn1cncn1)C(C)(C)Cc1ccc(C)cc1 (stereo not drawn) [I-49],< 1,< 1,2,< 1,2,,,,
CCSCC(O)(Cn1cncn1)C(C)(C)Cc1ccc(C)cc1 (stereo not drawn) [I-50],< 1,< 1,< 1,< 1,4,,,,
CCCSCC(O)(Cn1cncn1)C(C)(C)Cc1ccc(OC(F)(F)F)cc1 (stereo not drawn) [I-51],< 1,< 1,< 1,< 1,< 1,++ (= schwache Wirkung = 40 % Überlebende am 6.Tag.p.i.),bessere Wirkung,,
CCSCC(O)(Cn1cncn1)C(C)(C)Cc1ccc(OC(F)(F)F)cc1 (stereo not drawn) [I-52],< 1,< 1,2,< 1,16,++++ (= gute Wirkung = 80 % Überlebende am 6.Tag.p.i.),bessere Wirkung,+++++,sehr gute Wirkung
CCCSCC(O)(Cn1cncn1)C(C)(C)Cc1ccc(F)cc1 (stereo not drawn) [I-53],< 1,< 1,2,< 1,2,,,,
CC(C)SCC(O)(Cn1cncn1)C(C)(C)Cc1ccc(F)cc1 (stereo not drawn) [I-55],2,2,2,< 1,2,,,,
CC(C)(Cc1ccc(F)cc1)C(O)(CSCc1ccc(Cl)cc1)Cn1cncn1 (stereo not drawn) [I-58],8,2,4,< 1,< 1,,,,
CCCSCC(O)(Cn1cncn1)C(C)(C)Cc1ccc(SC(F)(F)F)cc1 (stereo not drawn) [I-60],< 1,2,2,< 1,4,,,,
CCCCSCC(O)(Cn1cncn1)C(C)(C)Cc1ccc(SC(F)(F)F)cc1 (stereo not drawn) [I-61],2,8,2,< 1,32,,,,
CC(C)SCC(O)(Cn1cncn1)C(C)(C)Cc1ccc(SC(F)(F)F)cc1 (stereo not drawn) [I-62],2,< 1,< 1,< 1,< 1,++ (= schwache Wirkung = 40 % Überlebende am 6.Tag.p.i.),bessere Wirkung,,
CC(C)(Cc1ccc(SC(F)(F)F)cc1)C(O)(CS)Cn1cncn1 (stereo not drawn) [I-63],< 1,2,2,< 1,16,,,,
CCSCC(O)(Cn1cncn1)C(C)(C)Cc1cccc(C)c1 (stereo not drawn) [I-64],4,< 1,2,2,4,,,,
Cc1cccc(CC(C)(C)C(O)(CSC(C)C)Cn2cncn2)c1 (stereo not drawn) [I-65],4,2,4,2,16,,,,
CCCCSCC(O)(Cn1cncn1)C(C)(C)Cc1cccc(C)c1 (stereo not drawn) [I-66],4,< 1,4,4,8,,,,
CCSCC(O)(Cn1cncn1)C(C)(C)Cc1ccccc1C (stereo not drawn) [I-67],4,< 1,2,< 1,2,,,,
CCSCC(O)(Cn1cncn1)C(C)(C)COc1ccc(Cl)cc1 (stereo not drawn) [I-68],< 1,< 1,< 1,< 1,4,,,,
CCSCC(O)(Cn1cncn1)C(C)(C)COc1ccc(Cl)c(C)c1 (stereo not drawn) [I-69],2,< 1,< 1,< 1,16,,,,
CCCSCC(O)(Cn1cncn1)C(C)(C)COc1ccc(Cl)c(C)c1 (stereo not drawn) [I-70],8,< 1,2,< 1,8,,,,
CC(C)(Oc1ccc(-c2ccccc2)cc1)C(O)(CSc1ccc(Cl)cc1)Cn1cncn1 (stereo not drawn) [I-93],,,,,,+++++ (= sehr gute Wirkung = 90 % Überlebende am 6.Tag.p.i.),bessere Wirkung,,
Cc1cc(Cl)ccc1OC(C)(C)C(O)(CSc1ccc(Cl)cc1)Cn1cncn1 (stereo not drawn) [I-94],,,,,,++++ (= gute Wirkung = 80 % Überlebende am 6.Tag.p.i.),bessere Wirkung,,
